According to PMC6199309, “A therapeutic approach to pantothenate kinase associated neurodegeneration” (Nature Communications, 2018):
Entries after “also recorded” stand apart in the source; their conditions may differ.

Columns and labels:
PIK3CA(Q546K) = molecular target: T1, PIK3CA(Q546K) (Homo sapiens, UniProt P42336, Q546K); experiment: KINOMEscan; type: binding; conditions: read-out: %Ctrl @ 10000nM
T1 construct: purchased DiscoverX KINOMEscan

RIOK3 = molecular target: T2, RIOK3 (Homo sapiens, UniProt O14730); experiment: KINOMEscan; type: binding; conditions: read-out: %Ctrl @ 10000nM
T2 construct: purchased DiscoverX KINOMEscan
T2 sequence (O14730 whole entry): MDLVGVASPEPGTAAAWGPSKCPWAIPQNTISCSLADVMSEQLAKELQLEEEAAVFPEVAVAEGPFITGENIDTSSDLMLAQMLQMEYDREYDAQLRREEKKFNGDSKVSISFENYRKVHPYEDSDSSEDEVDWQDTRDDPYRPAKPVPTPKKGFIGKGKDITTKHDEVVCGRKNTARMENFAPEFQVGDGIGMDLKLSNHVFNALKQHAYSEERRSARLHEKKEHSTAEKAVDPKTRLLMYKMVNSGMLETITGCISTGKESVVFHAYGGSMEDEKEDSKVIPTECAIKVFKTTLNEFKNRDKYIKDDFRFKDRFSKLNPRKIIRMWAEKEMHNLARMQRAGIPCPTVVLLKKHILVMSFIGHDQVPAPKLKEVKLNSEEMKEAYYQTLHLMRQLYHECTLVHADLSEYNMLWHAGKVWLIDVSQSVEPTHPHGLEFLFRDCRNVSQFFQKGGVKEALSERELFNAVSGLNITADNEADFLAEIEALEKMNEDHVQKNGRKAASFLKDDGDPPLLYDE

CDK4 = molecular target: T3, CDK4 (Homo sapiens, UniProt P11802); experiment: KINOMEscan; type: binding; conditions: read-out: %Ctrl @ 10000nM
T3 construct: purchased DiscoverX KINOMEscan
T3 sequence (P11802 whole entry): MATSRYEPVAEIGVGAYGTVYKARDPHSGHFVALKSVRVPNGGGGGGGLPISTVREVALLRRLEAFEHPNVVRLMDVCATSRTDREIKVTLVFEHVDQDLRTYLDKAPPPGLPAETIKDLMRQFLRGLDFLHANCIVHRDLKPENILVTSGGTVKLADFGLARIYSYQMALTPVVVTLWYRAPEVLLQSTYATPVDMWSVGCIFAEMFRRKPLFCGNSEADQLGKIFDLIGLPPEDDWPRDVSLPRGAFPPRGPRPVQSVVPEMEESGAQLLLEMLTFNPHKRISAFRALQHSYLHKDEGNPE

DMPK = molecular target: T4, DMPK (Homo sapiens, UniProt Q09013); experiment: KINOMEscan; type: binding; conditions: read-out: %Ctrl @ 10000nM
T4 construct: purchased DiscoverX KINOMEscan

SIK2 = molecular target: T5, SIK2 (Homo sapiens, UniProt Q9H0K1); experiment: KINOMEscan; type: binding; conditions: read-out: %Ctrl @ 10000nM
T5 construct: DNA tag for qPCR (T7 phage fusion or DNA label); purchased DiscoverX KdELECT; host or cells: E. coli BL21-derived (T7 phage) or HEK-293
T5 sequence (Q9H0K1 whole entry, the tested form may be a part): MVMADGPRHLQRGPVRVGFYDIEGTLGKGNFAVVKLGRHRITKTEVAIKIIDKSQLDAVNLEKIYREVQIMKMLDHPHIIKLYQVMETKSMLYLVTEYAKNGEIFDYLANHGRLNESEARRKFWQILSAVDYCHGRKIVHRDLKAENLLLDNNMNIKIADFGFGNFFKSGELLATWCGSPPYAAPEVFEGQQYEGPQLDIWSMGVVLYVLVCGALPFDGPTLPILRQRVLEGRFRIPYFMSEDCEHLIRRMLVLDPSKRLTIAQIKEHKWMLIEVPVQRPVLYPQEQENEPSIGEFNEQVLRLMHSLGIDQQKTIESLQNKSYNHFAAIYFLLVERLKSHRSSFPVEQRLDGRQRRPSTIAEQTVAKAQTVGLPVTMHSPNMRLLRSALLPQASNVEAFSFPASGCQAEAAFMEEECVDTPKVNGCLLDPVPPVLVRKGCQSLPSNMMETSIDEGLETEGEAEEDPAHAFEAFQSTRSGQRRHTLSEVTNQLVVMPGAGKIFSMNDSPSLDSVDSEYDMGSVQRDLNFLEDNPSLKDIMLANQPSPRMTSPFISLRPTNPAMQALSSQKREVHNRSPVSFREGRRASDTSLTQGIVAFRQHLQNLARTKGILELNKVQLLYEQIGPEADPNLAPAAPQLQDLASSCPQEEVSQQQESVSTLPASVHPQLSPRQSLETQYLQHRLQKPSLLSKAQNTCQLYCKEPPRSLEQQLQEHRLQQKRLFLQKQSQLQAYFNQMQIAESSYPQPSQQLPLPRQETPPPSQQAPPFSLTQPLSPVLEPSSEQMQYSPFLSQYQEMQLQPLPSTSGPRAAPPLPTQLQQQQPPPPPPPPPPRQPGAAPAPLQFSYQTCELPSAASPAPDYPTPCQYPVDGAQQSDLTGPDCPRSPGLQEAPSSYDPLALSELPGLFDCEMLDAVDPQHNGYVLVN

CLK2 = molecular target: T6, CLK2 (Homo sapiens, UniProt P49760); experiment: KINOMEscan; type: binding; conditions: read-out: %Ctrl @ 10000nM
T6 construct: purchased DiscoverX KINOMEscan

[1] = molecular target: T7, JAK1(JH1domain-catalytic) (Homo sapiens, UniProt P23458); experiment: KINOMEscan; type: binding; conditions: read-out: %Ctrl @ 10000nM
T7 construct: JAK1(JH1domain-catalytic); purchased DiscoverX KINOMEscan
T7 sequence (P23458 854-1154 limits assumed): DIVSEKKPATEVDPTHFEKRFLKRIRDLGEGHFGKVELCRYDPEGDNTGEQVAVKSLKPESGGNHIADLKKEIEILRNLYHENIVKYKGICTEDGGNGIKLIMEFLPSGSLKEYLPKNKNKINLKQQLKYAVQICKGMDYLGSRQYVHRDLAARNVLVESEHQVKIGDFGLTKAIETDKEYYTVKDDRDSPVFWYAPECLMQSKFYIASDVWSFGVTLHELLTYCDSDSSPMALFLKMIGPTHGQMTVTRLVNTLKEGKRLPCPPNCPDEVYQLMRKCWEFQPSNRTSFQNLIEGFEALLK

CDC2L2 = molecular target: T8, CDC2L2 (Homo sapiens, UniProt Q9UQ88); experiment: KINOMEscan; type: binding; conditions: read-out: %Ctrl @ 10000nM
T8 construct: purchased DiscoverX KINOMEscan

NEK1 = molecular target: T9, NEK1 (Homo sapiens, UniProt Q96PY6); experiment: KINOMEscan; type: binding; conditions: read-out: %Ctrl @ 10000nM
T9 construct: purchased DiscoverX KINOMEscan

PAK4 = molecular target: T10, PAK4 (Homo sapiens, UniProt O96013); experiment: KINOMEscan; type: binding; conditions: read-out: %Ctrl @ 10000nM
T10 construct: purchased DiscoverX KINOMEscan
T10 sequence (O96013 whole entry): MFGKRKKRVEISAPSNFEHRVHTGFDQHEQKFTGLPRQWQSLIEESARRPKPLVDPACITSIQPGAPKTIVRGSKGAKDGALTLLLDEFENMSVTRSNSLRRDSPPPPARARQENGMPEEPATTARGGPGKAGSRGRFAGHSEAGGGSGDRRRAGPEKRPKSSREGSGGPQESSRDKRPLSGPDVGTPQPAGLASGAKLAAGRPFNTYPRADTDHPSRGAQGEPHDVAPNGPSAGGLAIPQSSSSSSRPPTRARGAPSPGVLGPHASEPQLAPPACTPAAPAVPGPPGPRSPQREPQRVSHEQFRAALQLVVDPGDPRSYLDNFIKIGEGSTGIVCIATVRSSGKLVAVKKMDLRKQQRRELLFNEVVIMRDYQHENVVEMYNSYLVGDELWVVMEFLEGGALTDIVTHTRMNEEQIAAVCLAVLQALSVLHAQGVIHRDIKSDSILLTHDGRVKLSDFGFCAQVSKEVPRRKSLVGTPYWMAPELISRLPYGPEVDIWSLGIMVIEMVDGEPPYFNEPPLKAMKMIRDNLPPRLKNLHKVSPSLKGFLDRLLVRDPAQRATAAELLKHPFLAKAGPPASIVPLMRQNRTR

MARK4 = molecular target: T11, MARK4 (Homo sapiens, UniProt Q96L34); experiment: KINOMEscan; type: binding; conditions: read-out: %Ctrl @ 10000nM
T11 construct: purchased DiscoverX KINOMEscan

Protein binding = conditions: rat
TGFBR2 = molecular target: T12, TGFBR2 (Homo sapiens, UniProt P37173); experiment: KINOMEscan; type: binding; conditions: read-out: %Ctrl @ 10000nM
T12 construct: purchased DiscoverX KINOMEscan

MARK2 = molecular target: T13, MARK2 (Homo sapiens, UniProt Q7KZI7); experiment: KINOMEscan; type: binding; conditions: read-out: %Ctrl @ 10000nM
T13 construct: purchased DiscoverX KINOMEscan

ICK = molecular target: T14, ICK (Homo sapiens, UniProt Q9UPZ9); experiment: KINOMEscan; type: binding; conditions: read-out: %Ctrl @ 10000nM
T14 construct: purchased DiscoverX KINOMEscan

MAP4K2 = molecular target: T15, MAP4K2 (Homo sapiens, UniProt Q12851); experiment: KINOMEscan; type: binding; conditions: read-out: %Ctrl @ 10000nM
T15 construct: purchased DiscoverX KINOMEscan

ROS1 = molecular target: T16, ROS1 (Homo sapiens, UniProt P08922); experiment: KINOMEscan; type: binding; conditions: read-out: %Ctrl @ 10000nM
T16 construct: purchased DiscoverX KINOMEscan

TRKB = molecular target: T17, TRKB (Homo sapiens, UniProt Q16620); experiment: KINOMEscan; type: binding; conditions: read-out: %Ctrl @ 10000nM
T17 construct: purchased DiscoverX KINOMEscan

VRK2 = molecular target: T18, VRK2 (Homo sapiens, UniProt Q86Y07); experiment: KINOMEscan; type: binding; conditions: read-out: %Ctrl @ 10000nM
T18 construct: DNA label for qPCR (T7 phage fusion or DNA tag); purchased DiscoverX scanMAX; host or cells: E. coli BL21-derived (T7 phage) or HEK-293

MKNK1 = molecular target: T19, MKNK1 (Homo sapiens, UniProt Q9BUB5); experiment: KINOMEscan; type: binding; conditions: read-out: %Ctrl @ 10000nM
T19 construct: purchased DiscoverX KINOMEscan

PIM2 = molecular target: T20, PIM2 (Homo sapiens, UniProt Q9P1W9); experiment: KINOMEscan; type: binding; conditions: read-out: %Ctrl @ 10000nM
T20 construct: purchased DiscoverX KINOMEscan

MARK3 = molecular target: T21, MARK3 (Homo sapiens, UniProt P27448); experiment: KINOMEscan; type: binding; conditions: read-out: %Ctrl @ 10000nM
T21 construct: purchased DiscoverX KINOMEscan

ABL2 = molecular target: T22, ABL2 (Homo sapiens, UniProt P42684); experiment: KINOMEscan; type: binding; conditions: read-out: %Ctrl @ 10000nM
T22 construct: purchased DiscoverX KINOMEscan

p38-alpha = molecular target: T23, p38-alpha (Homo sapiens, UniProt Q16539); experiment: KINOMEscan; type: binding; conditions: read-out: %Ctrl @ 10000nM
T23 construct: purchased DiscoverX KINOMEscan

CSNK1A1 = molecular target: T24, CSNK1A1 (Homo sapiens, UniProt P48729); experiment: KINOMEscan; type: binding; conditions: read-out: %Ctrl @ 10000nM
T24 construct: purchased DiscoverX KINOMEscan

ROCK2 = molecular target: T25, ROCK2 (Homo sapiens, UniProt O75116); experiment: KINOMEscan; type: binding; conditions: read-out: %Ctrl @ 10000nM
T25 construct: purchased DiscoverX KINOMEscan

TAOK2 = molecular target: T26, TAOK2 (Homo sapiens, UniProt Q9UL54); experiment: KINOMEscan; type: binding; conditions: read-out: %Ctrl @ 10000nM
T26 construct: purchased DiscoverX KINOMEscan

[2] = molecular target: T27, RSK3(Kin.Dom.1-N-terminal) (Homo sapiens, UniProt Q15349); experiment: KINOMEscan; type: binding; conditions: read-out: %Ctrl @ 10000nM
T27 construct: RSK3(Kin.Dom.1-N-terminal); purchased DiscoverX KINOMEscan

GCN2(Kin.Dom.2,S808G) = molecular target: T28, GCN2(Kin.Dom.2,S808G) (Homo sapiens, UniProt Q9P2K8, S808G); experiment: KINOMEscan; type: binding; conditions: read-out: %Ctrl @ 10000nM
T28 construct: GCN2(Kin.Dom.2,S808G); purchased DiscoverX KINOMEscan

TSSK3 = molecular target: T29, TSSK3 (Homo sapiens, UniProt Q96PN8); experiment: KINOMEscan; type: binding; conditions: read-out: %Ctrl @ 10000nM
T29 construct: DNA label for qPCR (T7 phage fusion or DNA tag); purchased DiscoverX scanMAX; host or cells: E. coli BL21-derived (T7 phage) or HEK-293

468 human kinases = experiment: KINOMEscan scanMAX panel; type: binding
MST1 = molecular target: T30, MST1 (Homo sapiens, UniProt Q13043); experiment: KINOMEscan; type: binding; conditions: read-out: %Ctrl @ 10000nM
T30 construct: purchased DiscoverX KINOMEscan

MINK = molecular target: T31, MINK (Homo sapiens, UniProt Q8N4C8); experiment: KINOMEscan; type: binding; conditions: read-out: %Ctrl @ 10000nM
T31 construct: purchased DiscoverX KINOMEscan
T31 sequence (Q8N4C8 whole entry): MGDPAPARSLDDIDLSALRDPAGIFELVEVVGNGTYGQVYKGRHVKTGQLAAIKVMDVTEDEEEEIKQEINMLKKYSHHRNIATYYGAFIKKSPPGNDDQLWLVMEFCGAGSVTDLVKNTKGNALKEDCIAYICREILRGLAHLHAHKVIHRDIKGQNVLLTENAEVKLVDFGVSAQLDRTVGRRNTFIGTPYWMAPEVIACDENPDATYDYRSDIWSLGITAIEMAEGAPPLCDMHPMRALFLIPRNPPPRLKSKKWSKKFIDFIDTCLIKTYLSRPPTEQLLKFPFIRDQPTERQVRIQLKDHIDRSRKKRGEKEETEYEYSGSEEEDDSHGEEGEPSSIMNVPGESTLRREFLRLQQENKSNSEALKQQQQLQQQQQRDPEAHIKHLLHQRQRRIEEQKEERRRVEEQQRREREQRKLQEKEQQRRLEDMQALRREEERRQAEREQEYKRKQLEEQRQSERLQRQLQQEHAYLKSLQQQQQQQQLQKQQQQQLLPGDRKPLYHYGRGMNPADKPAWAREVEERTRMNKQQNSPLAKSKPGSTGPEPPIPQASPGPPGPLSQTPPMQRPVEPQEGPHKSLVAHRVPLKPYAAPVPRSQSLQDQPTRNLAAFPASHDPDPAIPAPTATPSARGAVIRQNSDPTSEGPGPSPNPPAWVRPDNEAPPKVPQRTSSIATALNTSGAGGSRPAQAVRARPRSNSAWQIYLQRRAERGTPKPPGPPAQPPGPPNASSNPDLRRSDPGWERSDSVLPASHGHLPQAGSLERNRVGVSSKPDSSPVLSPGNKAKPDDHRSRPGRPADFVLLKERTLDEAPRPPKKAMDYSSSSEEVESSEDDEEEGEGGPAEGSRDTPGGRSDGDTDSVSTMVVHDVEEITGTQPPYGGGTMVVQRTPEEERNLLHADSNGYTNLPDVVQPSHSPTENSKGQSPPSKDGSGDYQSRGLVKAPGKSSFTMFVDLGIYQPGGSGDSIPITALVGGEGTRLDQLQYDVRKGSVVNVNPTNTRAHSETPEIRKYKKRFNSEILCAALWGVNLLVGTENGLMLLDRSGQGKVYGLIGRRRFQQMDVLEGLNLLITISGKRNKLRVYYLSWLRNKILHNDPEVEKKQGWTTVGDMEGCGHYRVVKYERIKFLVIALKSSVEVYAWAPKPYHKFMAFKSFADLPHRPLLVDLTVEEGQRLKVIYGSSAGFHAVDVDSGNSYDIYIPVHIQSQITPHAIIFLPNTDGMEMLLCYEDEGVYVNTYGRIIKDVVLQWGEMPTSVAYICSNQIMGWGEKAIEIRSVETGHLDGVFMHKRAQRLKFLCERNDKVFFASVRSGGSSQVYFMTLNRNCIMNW

STK35 = molecular target: T32, STK35 (Homo sapiens, UniProt Q8TDR2); experiment: KINOMEscan KdELECT; type: binding
T32 construct: DNA tag for qPCR (T7 phage fusion or DNA label); purchased DiscoverX KdELECT; host or cells: E. coli BL21-derived (T7 phage) or HEK-293
T32 sequence (Q8TDR2 whole entry, the tested form may be a part): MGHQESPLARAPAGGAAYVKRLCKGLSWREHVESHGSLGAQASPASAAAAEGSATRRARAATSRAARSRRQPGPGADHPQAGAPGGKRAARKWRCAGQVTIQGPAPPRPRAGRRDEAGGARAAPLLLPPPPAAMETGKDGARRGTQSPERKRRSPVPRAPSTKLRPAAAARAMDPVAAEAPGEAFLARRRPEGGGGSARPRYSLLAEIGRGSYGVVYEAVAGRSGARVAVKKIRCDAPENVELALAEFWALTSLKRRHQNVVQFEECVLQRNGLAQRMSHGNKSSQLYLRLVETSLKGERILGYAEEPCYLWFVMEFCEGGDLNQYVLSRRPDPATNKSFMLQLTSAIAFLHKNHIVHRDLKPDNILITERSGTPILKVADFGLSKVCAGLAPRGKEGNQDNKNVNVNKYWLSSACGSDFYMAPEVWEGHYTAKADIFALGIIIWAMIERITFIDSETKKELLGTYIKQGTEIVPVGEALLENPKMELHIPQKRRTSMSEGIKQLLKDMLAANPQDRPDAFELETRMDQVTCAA

PLK3 = molecular target: T33, PLK3 (Homo sapiens, UniProt Q9H4B4); experiment: KINOMEscan; type: binding; conditions: read-out: %Ctrl @ 10000nM
T33 construct: purchased DiscoverX KINOMEscan

YES = molecular target: T34, YES (Homo sapiens, UniProt P07947); experiment: KINOMEscan; type: binding; conditions: read-out: %Ctrl @ 10000nM
T34 construct: purchased DiscoverX scanMAX; host or cells: E. coli BL21-derived host (T7 phage) or HEK-293
T34 sequence (P07947 whole entry): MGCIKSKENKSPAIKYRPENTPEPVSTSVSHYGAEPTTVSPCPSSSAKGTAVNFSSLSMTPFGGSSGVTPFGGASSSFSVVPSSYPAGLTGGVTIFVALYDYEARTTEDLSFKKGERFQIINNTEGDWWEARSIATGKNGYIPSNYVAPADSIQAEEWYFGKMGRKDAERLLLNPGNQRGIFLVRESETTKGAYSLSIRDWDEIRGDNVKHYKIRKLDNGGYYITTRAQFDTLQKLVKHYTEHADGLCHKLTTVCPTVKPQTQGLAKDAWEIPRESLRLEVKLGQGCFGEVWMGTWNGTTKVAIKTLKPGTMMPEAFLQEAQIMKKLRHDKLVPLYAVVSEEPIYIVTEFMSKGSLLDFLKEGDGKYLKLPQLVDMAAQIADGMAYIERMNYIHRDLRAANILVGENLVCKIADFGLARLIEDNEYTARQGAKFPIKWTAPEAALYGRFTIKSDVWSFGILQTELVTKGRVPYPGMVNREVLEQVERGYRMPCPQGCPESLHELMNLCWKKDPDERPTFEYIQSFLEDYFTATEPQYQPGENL

EPHB2 = molecular target: T35, EPHB2 (Homo sapiens, UniProt P29323); experiment: KINOMEscan; type: binding; conditions: read-out: %Ctrl @ 10000nM
T35 construct: purchased DiscoverX KINOMEscan

AKT3 = molecular target: T36, AKT3 (Homo sapiens, UniProt Q9Y243); experiment: KINOMEscan; type: binding; conditions: read-out: %Ctrl @ 10000nM
T36 construct: purchased DiscoverX KINOMEscan

[3] = molecular target: T37, ABL1(F317L)-nonphosphorylated (Homo sapiens, UniProt P00519, F317L); experiment: KINOMEscan; type: binding; conditions: read-out: %Ctrl @ 10000nM
T37 construct: purchased DiscoverX KINOMEscan

[4] = 10000 nM, 403 non-mutant kinases

Question: For `CC(C)c1ccc(CC(=O)N2CCN(c3ccc(C#N)nn3)CC2)cc1` [PZ-2891, 6-(4-(2-(4-isopropylphenyl)acetyl)piperazin-1-yl)pyridazine-3-carbonitrile], which remaining binding at 10 µM (PIK3CA(Q546K)) is on record?
Answer: 70%

Question: And the remaining binding at 10 µM (RIOK3)?
Answer: 100%

Question: And the remaining binding at 10 µM (CDK4)?
Answer: 99%

Question: What about the remaining binding at 10 µM (DMPK) of the same compound?
Answer: 89%

Question: And the remaining binding at 10 µM (SIK2)?
Answer: 9.5%

Question: And the remaining binding at 10 µM (CLK2)?
Answer: 94%

Question: And the remaining binding at 10 µM [1]?
Answer: 74%

Question: And the remaining binding at 10 µM (CDC2L2)?
Answer: 87%

Question: What about the remaining binding at 10 µM (NEK1) of the same compound?
Answer: 100%

Question: What about the remaining binding at 10 µM (PAK4) of the same compound?
Answer: 92%

Question: And the remaining binding at 10 µM (MARK4)?
Answer: 81%

Question: What about the fraction unbound (Protein binding) of the same compound?
Answer: 0.09

Question: What about the remaining binding at 10 µM (TGFBR2) of the same compound?
Answer: 98%

Question: What about the remaining binding at 10 µM (MARK2) of the same compound?
Answer: 70%

Question: What about the remaining binding at 10 µM (ICK) of the same compound?
Answer: 81%

Question: And the remaining binding at 10 µM (MAP4K2)?
Answer: 77%

Question: And the remaining binding at 10 µM (ROS1)?
Answer: 81%

Question: And the remaining binding at 10 µM (TRKB)?
Answer: 100%

Question: And the remaining binding at 10 µM (VRK2)?
Answer: 70%

Question: And the remaining binding at 10 µM (MKNK1)?
Answer: 97%

Question: What about the remaining binding at 10 µM (PIM2) of the same compound?
Answer: 96%

Question: What about the remaining binding at 10 µM (MARK3) of the same compound?
Answer: 84%

Question: What about the remaining binding at 10 µM (ABL2) of the same compound?
Answer: 96%

Question: What about the remaining binding at 10 µM (p38-alpha) of the same compound?
Answer: 100%

Question: And the remaining binding at 10 µM (CSNK1A1)?
Answer: 66%

Question: What about the remaining binding at 10 µM (ROCK2) of the same compound?
Answer: 100%

Question: And the remaining binding at 10 µM (TAOK2)?
Answer: 99%

Question: And the remaining binding at 10 µM [2]?
Answer: 72%

Question: And the remaining binding at 10 µM (GCN2(Kin.Dom.2,S808G))?
Answer: 87%

Question: And the remaining binding at 10 µM (TSSK3)?
Answer: 69%

Question: What about the “inhibitory activity in screen of 468 kinases” value (468 human kinases; 10 μM) of the same compound?
Answer: did not exhibit off-target inhibition; also recorded: did not have significant inhibitory activity

Question: And the “Number of Hits S(1)” value (468 human kinases; [4])?
Answer: 1

Question: And the “Number of Hits S(10)” value (468 human kinases; [4])?
Answer: 2

Question: What about the “Number of Hits S(35)” value (468 human kinases; [4]) of the same compound?
Answer: 2

Question: What about the remaining binding at 10 µM (MST1) of the same compound?
Answer: 86%

Question: And the remaining binding at 10 µM (MINK)?
Answer: 74%

Question: And the Kd (STK35; STK35)?
Answer: > 30 µM

Question: What about the Kd (STK35; STK35 Replicate ID = 1) of the same compound?
Answer: > 30 µM

Question: What about the Kd (STK35; STK35 Replicate ID = 2) of the same compound?
Answer: > 30 µM

Question: And the remaining binding at 10 µM (PLK3)?
Answer: 78%

Question: What about the remaining binding at 10 µM (YES) of the same compound?
Answer: 90%

Question: And the remaining binding at 10 µM (EPHB2)?
Answer: 82%

Question: What about the remaining binding at 10 µM (AKT3) of the same compound?
Answer: 82%

Question: What about the remaining binding at 10 µM [3] of the same compound?
Answer: 73%
